Tested on: DNA repair protein genes
Experiment: DNA chip mRNA expression in yeast, DNA repair protein genes (Table 3)
Type: cell-based, Saccharomyces cerevisiae S288C
Details: incubated two hours, concentrations as in the 1st table
In short: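 Whole-genome yeast DNA chip hybridization (65° C., >12 h) of Cy-labeled cDNA from S288C cells exposed 2 h at 25° C. to a sub-lethal toxicant dose in YPD; value is intensity relative to chemical-free control.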

SMILES: C=CC=O [(14), acrolein]
- The level of expressed mRNA in the presence of chemical substance/The level of expressed mRNA in the absence of chemical substance (yeast gene YAL015C): 1.6
- The level of expressed mRNA in the presence of chemical substance/The level of expressed mRNA in the absence of chemical substance (yeast gene YAR007C): 1.4
- The level of expressed mRNA in the presence of chemical substance/The level of expressed mRNA in the absence of chemical substance (yeast gene YBL019W): 1.1
- The level of expressed mRNA in the presence of chemical substance/The level of expressed mRNA in the absence of chemical substance (yeast gene YBR073W): 1.0
- The level of expressed mRNA in the presence of chemical substance/The level of expressed mRNA in the absence of chemical substance (yeast gene YBR272C): 1.0
- The level of expressed mRNA in the presence of chemical substance/The level of expressed mRNA in the absence of chemical substance (yeast gene YCR014C): 1.0
- The level of expressed mRNA in the presence of chemical substance/The level of expressed mRNA in the absence of chemical substance (yeast gene YDL017W): 1.3
- The level of expressed mRNA in the presence of chemical substance/The level of expressed mRNA in the absence of chemical substance (yeast gene YDL059C): 4.7
- The level of expressed mRNA in the presence of chemical substance/The level of expressed mRNA in the absence of chemical substance (yeast gene YDL200C): 1.8
- The level of expressed mRNA in the presence of chemical substance/The level of expressed mRNA in the absence of chemical substance (yeast gene YDR054C): 1.1
- The level of expressed mRNA in the presence of chemical substance/The level of expressed mRNA in the absence of chemical substance (yeast gene YDR369C): 0.7
- The level of expressed mRNA in the presence of chemical substance/The level of expressed mRNA in the absence of chemical substance (yeast gene YEL019C): 1.7
- The level of expressed mRNA in the presence of chemical substance/The level of expressed mRNA in the absence of chemical substance (yeast gene YEL037C): 1.0
- The level of expressed mRNA in the presence of chemical substance/The level of expressed mRNA in the absence of chemical substance (yeast gene YER162C): 0.8
- The level of expressed mRNA in the presence of chemical substance/The level of expressed mRNA in the absence of chemical substance (yeast gene YFL014W): 7.3
- The level of expressed mRNA in the presence of chemical substance/The level of expressed mRNA in the absence of chemical substance (yeast gene YGL058W): 1.3
- The level of expressed mRNA in the presence of chemical substance/The level of expressed mRNA in the absence of chemical substance (yeast gene YGL091C): 3.1
- The level of expressed mRNA in the presence of chemical substance/The level of expressed mRNA in the absence of chemical substance (yeast gene YGL127C): 1.0
- The level of expressed mRNA in the presence of chemical substance/The level of expressed mRNA in the absence of chemical substance (yeast gene YGL163C): 1.6
- The level of expressed mRNA in the presence of chemical substance/The level of expressed mRNA in the absence of chemical substance (yeast gene YGL249W): 1.9
- The level of expressed mRNA in the presence of chemical substance/The level of expressed mRNA in the absence of chemical substance (yeast gene YGR180C): 0.9
- The level of expressed mRNA in the presence of chemical substance/The level of expressed mRNA in the absence of chemical substance (yeast gene YGR231C): 2.2
- The level of expressed mRNA in the presence of chemical substance/The level of expressed mRNA in the absence of chemical substance (yeast gene YGR258C): 1.2
- The level of expressed mRNA in the presence of chemical substance/The level of expressed mRNA in the absence of chemical substance (yeast gene YHR164C): 1.3
- The level of expressed mRNA in the presence of chemical substance/The level of expressed mRNA in the absence of chemical substance (yeast gene YIL036W): 1.1
- The level of expressed mRNA in the presence of chemical substance/The level of expressed mRNA in the absence of chemical substance (yeast gene YIL072W): 2.0
- The level of expressed mRNA in the presence of chemical substance/The level of expressed mRNA in the absence of chemical substance (yeast gene YIL143C): 1.0
- The level of expressed mRNA in the presence of chemical substance/The level of expressed mRNA in the absence of chemical substance (yeast gene YIL153W): 1.0
- The level of expressed mRNA in the presence of chemical substance/The level of expressed mRNA in the absence of chemical substance (yeast gene YIR002C): 1.1
- The level of expressed mRNA in the presence of chemical substance/The level of expressed mRNA in the absence of chemical substance (yeast gene YJL026W): 1.0
- The level of expressed mRNA in the presence of chemical substance/The level of expressed mRNA in the absence of chemical substance (yeast gene YJR046W): 1.0
- The level of expressed mRNA in the presence of chemical substance/The level of expressed mRNA in the absence of chemical substance (yeast gene YJR052W): 1.4
- The level of expressed mRNA in the presence of chemical substance/The level of expressed mRNA in the absence of chemical substance (yeast gene YKL145W): 1.0
- The level of expressed mRNA in the presence of chemical substance/The level of expressed mRNA in the absence of chemical substance (yeast gene YLR103C): 1.0
- The level of expressed mRNA in the presence of chemical substance/The level of expressed mRNA in the absence of chemical substance (yeast gene YLR233C): 1.1
- The level of expressed mRNA in the presence of chemical substance/The level of expressed mRNA in the absence of chemical substance (yeast gene YLR288C): 1.2
- The level of expressed mRNA in the presence of chemical substance/The level of expressed mRNA in the absence of chemical substance (yeast gene YML032C): 1.0
- The level of expressed mRNA in the presence of chemical substance/The level of expressed mRNA in the absence of chemical substance (yeast gene YML058W): 1.1
- The level of expressed mRNA in the presence of chemical substance/The level of expressed mRNA in the absence of chemical substance (yeast gene YMR035W): 1.3
- The level of expressed mRNA in the presence of chemical substance/The level of expressed mRNA in the absence of chemical substance (yeast gene YMR072W): 1.2
- The level of expressed mRNA in the presence of chemical substance/The level of expressed mRNA in the absence of chemical substance (yeast gene YMR096W): 4.7
- The level of expressed mRNA in the presence of chemical substance/The level of expressed mRNA in the absence of chemical substance (yeast gene YMR284W): 1.2
- The level of expressed mRNA in the presence of chemical substance/The level of expressed mRNA in the absence of chemical substance (yeast gene YNL213C): 1.8
- The level of expressed mRNA in the presence of chemical substance/The level of expressed mRNA in the absence of chemical substance (yeast gene YNL250W): 1.6
- The level of expressed mRNA in the presence of chemical substance/The level of expressed mRNA in the absence of chemical substance (yeast gene YNL261W): 1.4
- The level of expressed mRNA in the presence of chemical substance/The level of expressed mRNA in the absence of chemical substance (yeast gene YNL312W): 1.1
- The level of expressed mRNA in the presence of chemical substance/The level of expressed mRNA in the absence of chemical substance (yeast gene YOL043C): 1.5
- The level of expressed mRNA in the presence of chemical substance/The level of expressed mRNA in the absence of chemical substance (yeast gene YOR005C): 1.2
- The level of expressed mRNA in the presence of chemical substance/The level of expressed mRNA in the absence of chemical substance (yeast gene YOR386W): 0.9
- The level of expressed mRNA in the presence of chemical substance/The level of expressed mRNA in the absence of chemical substance (yeast gene YPL022W): 0.9
- The level of expressed mRNA in the presence of chemical substance/The level of expressed mRNA in the absence of chemical substance (yeast gene YPL164C): 0.9
- The level of expressed mRNA in the presence of chemical substance/The level of expressed mRNA in the absence of chemical substance (yeast gene YPL194W): 1.1
- The level of expressed mRNA in the presence of chemical substance/The level of expressed mRNA in the absence of chemical substance (yeast gene YPR025C): 1.3

Source: patent US8192962B2, “Processes for detecting toxic substances” (Daikin Industries, Ltd., priority 2001, dated 2012)
